Results from US10934310B2, “Inhibitors of Bruton's tyrosine kinase and method of their use” (JANSSEN PHARMACEUTICA NV, priority 2015, dated 2021).

biological target: unphosphorylated-BTK kinase domain (UP-BTK), GST-tagged human BTK (389-659aa) (Homo sapiens (Human), UniProt Q06187); assay: BTK Kinase Lanthascreen Binding Assay; conditions: Lanthascreen binding, 60 minutes incubation; pIC50 = negative log of the IC50 in molar
Experimental: BTK Kinase Lanthascreen Binding Assay:
A BTK kinase lanthascreen binding assay monitors compound binding to unphosphorylated-BTK kinase domain (UP-BTK), by competing with a fluorescent labeled tracer. […] Data were analyzed using Xlfit™ version 5.3 from ID Business Solutions (Guildford), Microsoft Excel add-in. pIC50 refers to the negative log of the IC50 in molar.

Sequence of unphosphorylated-BTK kinase domain (UP-BTK), GST-tagged human BTK (389-659aa) (Q06187 389-659): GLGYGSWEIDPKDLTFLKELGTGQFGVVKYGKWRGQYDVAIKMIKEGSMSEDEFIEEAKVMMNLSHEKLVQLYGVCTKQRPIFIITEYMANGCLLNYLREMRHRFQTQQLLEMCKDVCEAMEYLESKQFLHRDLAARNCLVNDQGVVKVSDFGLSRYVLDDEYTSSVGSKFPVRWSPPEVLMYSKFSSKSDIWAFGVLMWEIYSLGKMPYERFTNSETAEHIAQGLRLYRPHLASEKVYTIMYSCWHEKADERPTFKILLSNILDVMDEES

| SMILES | BTK_I_binding pIC50 |
| --- | --- |
| C=CC(=O)N[C@H]1CCC[C@H]1NC(=O)c1sc2nccc3c2c1NC(=O)N3c1cc(-c2ccccc2)cnn1 [Example 320, N-((1R,2S)-2-Acrylamidocyclopentyl)-4-oxo-5-(5-phenylpyridazin-3-yl)-4,5-dihydro-3H-1-thia-3,5,8-triazaacenaphthylene-2-carboxamide] | 7.23 |
| C=CC(=O)N[C@@H]1CCC[C@H]1NC(=O)c1sc2nccc3c2c1NC(=O)N3c1cccc(-c2cccnc2)c1 [Example 324, N-((1R,2R)-2-Acrylamidocyclopentyl)-4-oxo-5-(3-(pyridin-3-yl)phenyl)-4,5-dihydro-3H-1-thia-3,5,8-triazaacenaphthylene-2-carboxamide] | 6.90 |
| C=CC(=O)N[C@H]1CCC[C@H]1NC(=O)c1sc2nccc3c2c1NC(=O)N3c1ccnc(-c2ccccn2)c1 [Example 325, 5-([2,2′-Bipyridin]-4-yl)-N-((1R,2S)-2-acrylamidocyclopentyl)-4-oxo-4,5-dihydro-3H-1-thia-3,5,8-triazaacenaphthylene-2-carboxamide] | 7.07 |
| C=CC(=O)N[C@@H]1CCC[C@H]1NC(=O)c1sc2nccc3c2c1NC(=O)N3c1ccnc(-c2cccnc2)c1 [Example 326, 5-([2,3′-Bipyridin]-4-yl)-N-((1R,2R)-2-acrylamidocyclopentyl)-4-oxo-4,5-dihydro-3H-1-thia-3,5,8-triazaacenaphthylene-2-carboxamide] | 6.72 |
| C=CC(=O)N[C@@H]1CCC[C@H]1NC(=O)c1sc2nccc3c2c1NC(=O)N3c1cccc(-c2ccccn2)c1 [Example 327, N-((1R,2R)-2-Acrylamidocyclopentyl)-4-oxo-5-(3-(pyridin-2-yl)phenyl)-4,5-dihydro-3H-1-thia-3,5,8-triazaacenaphthylene-2-carboxamide] | 6.98 |
| C=CC(=O)N[C@H]1CCC[C@H]1NC(=O)c1sc2nccc3c2c1NC(=O)N3c1cnc(NC(C)C)cc1C [Example 330, N-((1R,2S)-2-Acrylamidocyclopentyl)-5-(6-(isopropylamino)-4-methylpyridin-3-yl)-4-oxo-4,5-dihydro-3H-1-thia-3,5,8-triazaacenaphthylene-2-carboxamide] | 6.69 |
| CC(C)c1cc(N2C(=O)Nc3c(C(=O)N[C@@H]4CCC[C@H]4N)sc4nccc2c34)ccn1 [Example 336, N-((1R,2R)-2-Aminocyclopentyl)-5-(2-isopropylpyridin-4-yl)-4-oxo-4,5-dihydro-3H-1-thia-3,5,8-triazaacenaphthylene-2-carboxamide] | 6.01 |
| C=CC(=O)N[C@@H]1CCC[C@H]1NC(=O)c1sc2nccc3c2c1NC(=O)N3c1ccnc(C(C)C)c1 [Example 337, N-((1R,2R)-2-Acrylamidocyclopentyl)-5-(2-isopropylpyridin-4-yl)-4-oxo-4,5-dihydro-3H-1-thia-3,5,8-triazaacenaphthylene-2-carboxamide] | 6.42 |
| C=CC(=O)N[C@@H]1CCCC[C@H]1NC(=O)c1sc2nccc3c2c1NC(=O)N3c1cnc(Oc2ccccc2)nc1 [Example 338, N-((1R,2R)-2-Acrylamidocyclohexyl)-4-oxo-5-(2-phenoxypyrimidin-5-yl)-4,5-dihydro-3H-1-thia-3,5,8-triazaacenaphthylene-2-carboxamide] | 6.39 |
| C=CC(=O)N[C@@H]1CCC[C@H]1NC(=O)c1sc2nccc3c2c1NC(=O)N3c1ccnc(-c2ccccn2)c1 [Example 342, 5-([2,2′-Bipyridin]-4-yl)-N-((1R,2R)-2-acrylamidocyclopentyl)-4-oxo-4,5-dihydro-3H-1-thia-3,5,8-triazaacenaphthylene-2-carboxamide] | 6.12 |
| C=CC(=O)N[C@H]1CCC[C@H]1NC(=O)c1sc2nccc3c2c1NC(=O)N3c1ccc(Oc2cccnc2C)cc1C [Example 367, N-((1R,2S)-2-acrylamidocyclopentyl)-5-(2-methyl-4-((2-methylpyridin-3-yl)oxy)phenyl)-4-oxo-4,5-dihydro-3H-1-thia-3,5,8-triazaacenaphthylene-2-carboxamide] | 7.54 |
| C=CC(=O)N[C@H]1CCC[C@H]1NC(=O)c1sc2nccc3c2c1NC(=O)N3c1ccc(Oc2cccc(C)n2)cc1C [Example 368, N-((1R,2S)-2-acrylamidocyclopentyl)-5-(2-methyl-4-((6-methylpyridin-2-yl)oxy)phenyl)-4-oxo-4,5-dihydro-3H-1-thia-3,5,8-triazaacenaphthylene-2-carboxamide] | 8.13 |
| C=CC(=O)N[C@H]1CCC[C@H]1NC(=O)c1sc2nccc3c2c1NC(=O)N3c1ccc(Oc2cccc(C)n2)cc1 [Example 369, N-((1R,2S)-2-Acrylamidocyclopentyl)-5-(4-((6-methylpyridin-2-yl)oxy)phenyl)-4-oxo-4,5-dihydro-3H-1-thia-3,5,8-triazaacenaphthylene-2-carboxamide] | 8.06 |
| C=CC(=O)N[C@H]1CCC[C@H]1NC(=O)c1sc2nccc3c2c1NC(=O)N3c1ccc(Oc2ccc(C)nc2)cc1 [Example 370, N-((1R,2S)-2-Acrylamidocyclopentyl)-5-(4-((6-methylpyridin-3-yl)oxy)phenyl)-4-oxo-4,5-dihydro-3H-1-thia-3,5,8-triazaacenaphthylene-2-carboxamide] | 7.79 |
| C=CC(=O)N[C@H]1CCC[C@H]1NC(=O)c1sc2nccc3c2c1NC(=O)N3c1ccc(Oc2cccnc2C)cc1 [Example 372, N-((1R,2S)-2-Acrylamidocyclopentyl)-5-(4-((2-methylpyridin-3-yl)oxy)phenyl)-4-oxo-4,5-dihydro-3H-1-thia-3,5,8-triazaacenaphthylene-2-carboxamide] | 7.93 |
| C=CC(=O)N[C@H]1CCC[C@H]1NC(=O)c1sc2nccc3c2c1NC(=O)N3c1ccnc(C2CCC2)c1 [Example 376, N-((1R,2S)-2-Acrylamidocyclopentyl)-5-(2-cyclobutylpyridin-4-yl)-4-oxo-4,5-dihydro-3H-1-thia-3,5,8-triazaacenaphthylene-2-carboxamide] | 7.81 |
| C=CC(=O)N[C@@H]1CCC[C@H]1NC(=O)c1sc2nccc3c2c1NC(=O)N3c1ccnc(C2CCC2)c1 [Example 379, N-((1R,2R)-2-Acrylamidocyclopentyl)-5-(2-cyclobutylpyridin-4-yl)-4-oxo-4,5-dihydro-3H-1-thia-3,5,8-triazaacenaphthylene-2-carboxamide] | 6.80 |
| C=CC(=O)N[C@H]1CCC[C@H]1NC(=O)c1sc2nccc3c2c1NC(=O)N3c1ccc(O[C@H]2CCOC2)cc1C [Example 383, N-((1R,2S)-2-Acrylamidocyclopentyl)-5-(2-methyl-4-(((S)-tetrahydrofuran-3-yl)oxy)phenyl)-4-oxo-4,5-dihydro-3H-1-thia-3,5,8-triazaacenaphthylene-2-carboxamide] | 7.45 |

same assay, conditions: read-out: BTK_I_binding pIC50 (converted)

| SMILES | IC50 [nM] |
| --- | --- |
| N[C@H]1CCC[C@H]1NC(=O)c1sc2nccc3c2c1NC(=O)N3c1cc(-c2ccccc2)cnn1 [Example 349, N-((1R,2S)-2-Aminocyclopentyl)-4-oxo-5-(5-phenylpyridazin-3-yl)-4,5-dihydro-3H-1-thia-3,5,8-triazaacenaphthylene-2-carboxamide] | > 1000 |
| C=CC(=O)N[C@@H]1CCC[C@H](NC(=O)c2sc3nccc4c3c2NC(=O)N4c2ccnc(-c3ccccc3)c2)C1 [Example 351, N-((1S,3R)-3-Acrylamidocyclohexyl)-4-oxo-5-(2-phenylpyridin-4-yl)-4,5-dihydro-3H-1-thia-3,5,8-triazaacenaphthylene-2-carboxamide] | > 1000 |
